{"source": "patent EP3485891A1", "about": "“WOUND TREATMENT COMPOSITION CONTAINING ULDAVIOSIDE A COMPOUND” (Elcubio Co., Ltd., priority 2016, dated 2018)", "key": {"[1]": {"tested_on": "C2C12 cells", "test": "MTT assay, cytotoxicity", "format": "cell-based", "details": "1 µM and 10 µM, 24 hours", "description": "(§1) In order to investigate the activity of the uldavioside A compound of the present invention, animal cells were incubated. Here, C212 cells, as myoblasts, and NIH3T3 cells and human diploid fibroblasts (HDFs), as fibroblasts, were used as the animal cells. Each type of cells were incubated in a 5% CO2 incubator containing Dulbecco's modified eagle's medium (DMEM) supplemented with 10% fetal bovine serum (FBS), 100 U/mℓ penicillin, and 100 µg/mℓ streptomycin at 37 °C.\n(§2) The cytotoxicity of the uldavioside A compound of the present invention was investigated using a 3-(4,5-dimethylthiazol-2-yl)-2,5-diphenyltetrazolium bromide (MTT) assay.\n(§3) The C2C12 and NIH3T3 cells incubated in Experimental Example 1 above were dispensed at 1×10^5 cells per well in a 48-well plate and then incubated for 24 hours. Thereafter, DMEM medium containing 0.5% FBS, 100 U/mℓ penicillin, and 100 µg/mℓ streptomycin was placed therein, and then the cells were incubated for 18 hours. After the 18-hour incubation, the cells were treated with an uldavioside A compound at 1 µM and 10 µM and then incubated for 24 hours. Here, non-treated C2C12 and NIH3T3 cells were used as controls. After 24 hours, the cells were treated with an MTT solution at 100 µg/mℓ and incubated at 37 °C for 3 hours. Thereafter, the culture liquid was removed and the formed formazan precipitate was dissolved in 200 µℓ of dimethyl sulfoxide (DMSO), and then the absorbance was measured at 570 nm."}, "[2]": {"tested_on": "NIH3T3 cells", "test": "MTT assay, cytotoxicity", "format": "cell-based", "details": "1 µM and 10 µM, 24 hours", "description": "as §1, §2, §3"}, "[3]": {"tested_on": "C2C12 cells", "test": "Wound healing (scratch) assay under inflammatory stress (LPS)", "format": "cell-based", "details": "10 µM, 1 hour pre-incubation, then 10 µg/mℓ LPS, 0, 12, 24 hours, compared with the controls (LPS only), FIG. 3A, 3B", "description": "as §1\n(§4) In order to investigate a wound healing effect according to the treatment with the uldavioside A compound of the present invention, a wound healing assay was conducted.\n(§5) The C2C12 and NIH3T3 cells incubated in Experimental Example 1 above were dispensed at 1×10^6 cells per well in a 12-well plate, and then stabilized through incubation for 24 hours. Thereafter, DMEM medium containing 0.5% FBS, 100 U/mℓ penicillin, and 100 µg/mℓ streptomycin was placed therein, and then the cells were incubated for 18 hours. After the 18-hour incubation, a scratch with about 0.9 mm was made in the center of each well with growing cells, and the cells were treated with a 10 µM uldavioside A compound, followed by pre-incubation for 1 hour. After 1 hour, the cells were treated with 10 µg/mℓ lipopolysaccharide (LPS) for inflammatory stress stimulation, and then migration of the cells was observed while the cells were incubated. […]"}, "[4]": {"tested_on": "NIH3T3 cells", "test": "Wound healing (scratch) assay under inflammatory stress (LPS)", "format": "cell-based", "details": "10 µM, 1 hour pre-incubation, then 10 µg/mℓ LPS, 0, 12, 24 hours, compared with the controls (LPS only), FIG. 3C, 3D, migration activity higher than in C2C12", "description": "as §1, §4, §5"}, "[5]": {"tested_on": "C2C12 cells", "test": "Wound healing (scratch) assay under glucose oxidative stress (glucose oxidase)", "format": "cell-based", "details": "10 µM, 7 mU/mℓ glucose oxidase, compared with the controls, FIG. 4A, 4B", "description": "as §1\n(§6) The C2C12 and NIH3T3 cells incubated in Experimental Example 1 above were dispensed at 1×10^6 cells per well in a 12-well plate, and then stabilized through incubation for 24 hours. Thereafter, DMEM medium containing 0.5% FBS, 100 U/mℓ penicillin, and 100 µg/mℓ streptomycin was placed therein, and then the cells were incubated for 18 hours. After the 18-hour incubation, a scratch with about 0.9 mm was made in the center of each well with growing cells, and the cells were treated with a 10 µM uldavioside A compound, followed by pre-incubation for 1 hour. […] Here, at 0, 12, and 24 hours, the cells were fixed with a fixative (2% formaldehyde and 0.2% glutaraldehyde) and stained with 0.3% crystal violet, and then, the migration of the cells was checked using a microscope, and the reduction in area due to the migration of the cells into a wounded site. […]"}, "[6]": {"tested_on": "NIH3T3 cells", "test": "Wound healing (scratch) assay under glucose oxidative stress (glucose oxidase)", "format": "cell-based", "details": "10 µM, 7 mU/mℓ glucose oxidase, compared with the controls, FIG. 4, migration activity higher than in C2C12", "description": "as §1, §6"}, "[7]": {"tested_on": "Sprague-Dawley white rats", "test": "Full-thickness hack wound healing, visual observation and wound size quantification", "format": "in vivo", "details": "rat hind leg, 3 cm-diameter full-thickness hack, ointment containing 0.025 wt%, topical; days 3, 7, 10, 14; compared with the control (ointment without compound), FIG. 5", "description": "In order to investigate a wound healing effect of the uldavioside A compound of the present invention, an animal experiment was conducted.\nA hind leg of 7-8 week-old Sprague-Dawley white rats was shaved, and disinfected with 70% alcohol, and then a 3 cm-diameter circular full-thickness hack was made. After the full-thickness hack was made, the rats were randomly assigned and divided into a control treated without the uldavioside A compound of the present invention and a treatment group. For the treatment group, on the day of hack induction, the wound was treated with an ointment (Preparation Example 1-2 below) containing 0.025 wt% of the uldavioside A compound, wrapped with sterilized Korean traditional paper, and fixed with a band and a bandage to maintain a wet environment. For the control, the wound was treated with an ointment not containing the uldavioside A compound. Thereafter, on days 3, 7, 10, and 14 of wound induction, the wound site was observed, and the size of the wound site was quantified."}, "[8]": {"tested_on": "hack-induced animal tissue", "test": "Histological change of hack wound tissue (H&E stain, Masson's trichrome stain)", "format": "in vivo, Sprague-Dawley white rats", "description": "In order to investigate a hack healing effect of the uldavioside A compound of the present invention, a histological change was observed using the hack-induced animal tissue.\nThe collected tissue was fixed by treatment with 10% formalin for 24 hours. The fixed tissue was embedded with paraffin, and cut into a 5 µm thickness to obtain tissue sections. The tissue sections were deparaffinized, hydrated, and washed, and then subjected to hematoxylin & eosin stain or Masson's trichrome stain.\nMasson's trichrome stain is used to investigate collagen in the tissue, and collagenosis means that the wound in the dermis healed and the functions of the tissue were restored."}, "[9]": {"tested_on": "CD31", "test": "Immunohistochemistry of hack wound tissue sections", "format": "in vivo, Sprague-Dawley white rats", "details": "IHC, tissue sections on day 10, compared with the control, FIG. 7A", "description": "(§7) In order to investigate a hack healing effect of the uldavioside A compound of the present invention, the expression changes of proteins associated with angiogenesis and tissue regeneration were observed.\n(§8) The tissue sections on day 10, which were fabricated in Experimental Example 4-2 above, were deparaffinized, hydrated, and washed, and were then subjected to immunohistochemistry (IHC) using antibodies of vascular endothelial growth factor (VEGF) and CD31, which are proteins associated with angiogenesis in tissue, and basic fibroblast growth factor (bFGF) and β-catenin, which are proteins associated with tissue regeneration."}, "[10]": {"tested_on": "VEGF", "test": "Immunohistochemistry of hack wound tissue sections", "format": "in vivo, Sprague-Dawley white rats", "details": "IHC, tissue sections on day 10, compared with the control, FIG. 7A", "description": "as §7, §8"}, "[11]": {"tested_on": "bFGF", "test": "Immunohistochemistry of hack wound tissue sections", "format": "in vivo, Sprague-Dawley white rats", "details": "IHC, tissue sections on day 10, compared with the control, FIG. 7B", "description": "as §7, §8"}, "[12]": {"tested_on": "β-catenin", "test": "Immunohistochemistry of hack wound tissue sections", "format": "in vivo, Sprague-Dawley white rats", "details": "IHC, tissue sections on day 10, compared with the control, FIG. 7B", "description": "as §7, §8"}, "[13]": {"tested_on": "HDF cells", "test": "Cytoprotective activity against glucose oxidative stress in high-glucose environment (MTT)", "format": "cell-based, human", "details": "50 mM D-glucose, 10 µM and 20 µM, 7 mU/mℓ glucose oxidase, 24 hours, FIG. 8A", "description": "as §1\n(§9) The cytoprotective activity of the uldavioside A compound of the present invention against glucose oxidative stress was investigated.\n(§10) The C2C12 cells and HDF cells incubated in Experimental Example 1 were dispensed at 1×10^5 per well in a 48-well plate, respectively, and then incubated for 24 hours. Thereafter, each well was treated with 50 mM D-glucose to create a high-glucose environment. Then, the cells were treated with the uldavioside A compound at 10 µM and 20 µM, and after 1 hour, were treated with 7 mU/mℓ glucose oxidase, followed by incubation for 24 hours. Here, non-treated C2C12 or HDF cells were used as control 1, high-glucose state cells were used as control 2, and high-glucose state cells treated with glucose oxidase were used as control 3. […] Thereafter, the culture liquid was removed and the formed formazan precipitate was dissolved in 200 µℓ of DMSO, and then the absorbance was measured at 570 nm."}, "[14]": {"tested_on": "C2C12 cells", "test": "Cytoprotective activity against glucose oxidative stress in high-glucose environment (MTT)", "format": "cell-based", "details": "50 mM D-glucose, 10 µM and 20 µM, 7 mU/mℓ glucose oxidase, 24 hours, FIG. 8B", "description": "as §1, §9, §10"}, "[15]": {"tested_on": "diabetes-induced animal models", "test": "Diabetic ulcer healing, circular cut in streptozotocin-induced diabetic rats", "format": "in vivo, Sprague-Dawley white rats", "details": "dorsal circular cut 1 or 1.5 cm, ointment containing 0.025 wt%, topical, 8 days at intervals of 2 days, compared with the control, FIG. 9", "description": "In order to investigate a diabetic ulcer healing effect of the uldavioside A compound of the present invention, an animal experiment was conducted.\n7-week-old Sprague-Dawley white rats with a body weight of about 300 g were intraperitoneally injected with 60 mg/kg streptozotocin to induce diabetes. After three days, only white rates with a blood glucose level of 300 mg/dℓ or higher were selected by collecting venous blood from the tail vein and measuring the glucose level using a blood glucose meter. The dorsal part of each of the selected white rats was shaved, and a circular cut with a diameter of 1 or 1.5 cm was made on the dorsal part 4-5 cm away from the ear using a puncher. After the circular cut was made, the white rats were randomly assigned and divided into a control treated without the uldavioside A compound of the present invention and a treatment group. For the treatment group, on the day of circular cut induction, the cut was treated with an ointment containing 0.025 wt% of the uldavioside A compound (Preparation Example 1-2 below), wrapped with sterilized Korean traditional paper, and fixed with a band and a bandage to maintain a wet environment. For the control, the cut was treated with an ointment not containing the uldavioside A compound."}}, "data": [{"molecule": "OCC1(O)COC(Oc2cc(O)cc3c2CC(O)C(c2ccc(O)c(O)c2)O3)C1O", "note": "(stereo not drawn) [uldavioside A compound, uldavioside A]", "values": [{"measurement": "cytotoxicity", "setting": "[1]; MTT", "result": "no cytotoxicity"}, {"measurement": "cell viability", "setting": "[1]; compared with the controls (non-treated cells), FIG. 2A", "result": "increased"}, {"measurement": "cytotoxicity", "setting": "[2]; MTT", "result": "no cytotoxicity"}, {"measurement": "cell viability", "setting": "[2]; compared with the controls (non-treated cells), FIG. 2B", "result": "increased"}, {"measurement": "cell migration", "setting": "[3]", "result": "increased"}, {"measurement": "cell migration", "setting": "[4]", "result": "increased"}, {"measurement": "cell migration", "setting": "[5]", "result": "increased"}, {"measurement": "cell migration", "setting": "[6]", "result": "increased"}, {"measurement": "wound site (size of the wound site)", "setting": "[7]", "result": "started healing from day 7, and almost healed on day 14"}, {"measurement": "inflow of immune cells", "setting": "[8]; H&E stain, day 3 after hack induction, ointment 0.025 wt%, FIG. 6(A)", "result": "reduced"}, {"measurement": "angiogenesis and granulation tissues formation", "setting": "[8]; H&E stain, day 7 after hack induction, ointment 0.025 wt%, FIG. 6(A)", "result": "actively progressing"}, {"measurement": "proliferation of fibroblasts", "setting": "[8]; H&E stain, day 10 after hack induction, ointment 0.025 wt%, FIG. 6(A)", "result": "active proliferation of fibroblasts were observed"}, {"measurement": "amount of collagen stained", "setting": "[8]; Masson's trichrome stain, day 7 after hack induction, compared with the control, FIG. 6(B)", "result": "remarkably increased"}, {"measurement": "collagenosis", "setting": "[8]; Masson's trichrome stain, day 17, FIG. 6(B)", "result": "collagenosis in most tissues"}, {"measurement": "expression level of CD31", "setting": "[9]", "result": "significantly increased"}, {"measurement": "expression level of VEGF", "setting": "[10]", "result": "significantly increased"}, {"measurement": "expression level of bFGF", "setting": "[11]", "result": "significantly increased"}, {"measurement": "expression level of β-catenin", "setting": "[12]", "result": "significantly increased"}, {"measurement": "reduction in cell viability by glucose oxidative stress", "setting": "[13]", "result": "inhibited in a dose-dependent manner"}, {"measurement": "reduction in cell viability by glucose oxidative stress", "setting": "[14]", "result": "inhibited in a dose-dependent manner"}, {"measurement": "wound site (wound size)", "setting": "[15]", "result": "started healing from day 4 and the wound size remarkably decreased"}]}]}
